Data published in US11242337B2, “Compounds useful for treating gastrointestinal tract disorders” (Ardelyx, Inc., priority 2017, dated 2022).
Where a name gives a salt, the structure may show the parent alone.

What was measured:
NHE3 [1] = molecular target: T1, NHE3 (Homo sapiens, UniProt P48764); assay: Cell-based assay of NHE-3 activity (pre-incubation inhibition), human; settings: human Preincubation; for pIC50: 0-30 μM test compound
T1 construct: expressed in transfected cells
T1 sequence (P48764 26-834): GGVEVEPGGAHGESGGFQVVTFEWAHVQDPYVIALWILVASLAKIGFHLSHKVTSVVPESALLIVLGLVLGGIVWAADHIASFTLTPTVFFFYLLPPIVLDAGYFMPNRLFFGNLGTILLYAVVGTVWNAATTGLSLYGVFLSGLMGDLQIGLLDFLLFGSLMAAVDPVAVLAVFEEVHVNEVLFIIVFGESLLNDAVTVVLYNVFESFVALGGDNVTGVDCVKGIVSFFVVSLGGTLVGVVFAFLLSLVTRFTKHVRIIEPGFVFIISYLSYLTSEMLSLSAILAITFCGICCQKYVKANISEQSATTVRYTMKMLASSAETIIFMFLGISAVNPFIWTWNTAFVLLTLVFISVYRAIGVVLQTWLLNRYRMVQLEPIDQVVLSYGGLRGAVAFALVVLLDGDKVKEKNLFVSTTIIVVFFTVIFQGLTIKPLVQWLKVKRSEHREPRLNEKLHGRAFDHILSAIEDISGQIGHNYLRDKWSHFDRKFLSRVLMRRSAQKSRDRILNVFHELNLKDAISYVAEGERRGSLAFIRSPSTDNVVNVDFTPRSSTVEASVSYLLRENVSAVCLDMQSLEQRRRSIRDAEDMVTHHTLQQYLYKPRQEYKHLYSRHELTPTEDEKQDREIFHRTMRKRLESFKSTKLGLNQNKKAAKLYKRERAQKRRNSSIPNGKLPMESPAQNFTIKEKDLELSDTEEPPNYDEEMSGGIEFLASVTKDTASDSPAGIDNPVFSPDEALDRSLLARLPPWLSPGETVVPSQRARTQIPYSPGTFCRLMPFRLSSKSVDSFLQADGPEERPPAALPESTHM
T1 sequence (Q99653 2-195 partner limits assumed): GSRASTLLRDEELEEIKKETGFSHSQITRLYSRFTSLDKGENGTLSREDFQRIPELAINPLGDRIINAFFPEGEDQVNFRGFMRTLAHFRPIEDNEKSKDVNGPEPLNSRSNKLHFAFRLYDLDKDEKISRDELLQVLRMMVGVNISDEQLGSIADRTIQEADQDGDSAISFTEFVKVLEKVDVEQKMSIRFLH
Outline: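 Activity read as initial rate of BCECF fluorescence ratio change per minute (ex 439/505, em 538 nm) following NH4Cl prepulse acid loading. Compound (0–30 μM) present during 10 min Na+-free acidification at room temperature; cells were PS120 fibroblasts stably co-expressing human NHE3 and NHERF2.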

NHE3 [2] = molecular target: T1, NHE3; assay: Cell-based assay of NHE-3 activity (persistent inhibition), human; settings: human Persistence, 60 min incubation then washout
Outline: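 Persistent inhibition: compound (0-30 μM, 60 min, RT, NaCl-HEPES pH 7.4) removed before assay. Human NHE3/NHERF2 PS120 cells were then BCECF-loaded during NH4Cl pulse (30 min, 37 °C), acidified in Na+-free buffer, and Na+ added 10 min after washout; antiport measured as initial fluorescence-ratio change per minute.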

Row | SMILES | % inhibition (NHE3 [1]) | pIC50 (NHE3 [1]) | % inhibition (NHE3 [2]) | pIC50 (NHE3 [2])
1 | CC(C)(COCCOCCNC(=O)NCCCCNC(=O)NCCOCCOCC(C)(C)NS(=O)(=O)c1ccc(O[C@H]2c3cc(Cl)cc(Cl)c3C[C@@H]2N2CCC[C@@H](N)C2)cc1)NS(=O)(=O)c1ccc(O[C@H]2c3cc(Cl)cc(Cl)c3C[C@@H]2N2CCC[C@@H](N)C2)cc1 [Example 100, 1-[2-(2-[2-[(4-[[(1S,2S)-2-[(3R)-3-Aminopiperidin-1-yl]-4,6-dichloro-2,3-dihydro-1H-inden-1 yl]oxy]benzene)sulfonamido]-2-methylpropoxy]ethoxy)ethyl]-3-[4-([[2-(2-[2-[(4-[[(1S,2S)-2-[(3R)-3-aminopiperidin-1-yl]-4,6-dichloro-2,3-dihydro-1H-inden-1-yl]oxy]benzene)sulfonamido]-2-methylpropoxy]ethoxy)ethyl]carbamoyl]amino)butyl]urea; hydrochloride] | C (>70%) | C (NHE3 pIC50 > 7) | C (>70%) | C (NHE3 pIC50 > 7)
2 | Cc1cc(O[C@H]2c3cc(Cl)cc(Cl)c3C[C@@H]2N2CCC[C@@H](N)C2)ccc1S(=O)(=O)NCCOCCOCCNC(=O)NCCCCNC(=O)NCCOCCOCCNS(=O)(=O)c1ccc(O[C@H]2c3cc(Cl)cc(Cl)c3C[C@@H]2N2CCC[C@@H](N)C2)cc1C [Example 102, 3-[2-(2-[2-[(4-[[(1S,2S)-2-[(3R)-3-Aminopiperidin-1-yl]-4,6-dichloro-2,3-dihydro-1H-inden-1-yl]oxy]-2-methylbenzene)sulfonamido]ethoxy]ethoxy)ethyl]-1-[4-([[2-(2-[2-[(4-[[(1S,2S)-2-[(3R)-3-aminopiperidin-1-yl]-4,6-dichloro-2,3-dihydro-1H-inden-1-yl]oxy]-2-methylbenzene)sulfonamido]ethoxy]ethoxy)ethyl]carbamoyl]amino)butyl]urea] | C (>70%) | C (NHE3 pIC50 > 7) | C (>70%) | C (NHE3 pIC50 > 7)
3 | N[C@@H]1CCCN([C@H]2Cc3c(Cl)cc(Cl)cc3[C@@H]2Oc2ccc(S(=O)(=O)NCCOCCOCCNC(=O)NCCCCNC(=O)NCCOCCOCCNS(=O)(=O)c3ccc(O[C@H]4c5cc(Cl)cc(Cl)c5C[C@@H]4N4CCC[C@@H](N)C4)cc3F)c(F)c2)C1 [Example 103, 1-[2-(2-[2-[(4-[[(1S,2S)-2-[(3R)-3-Aminopiperidin-1-yl]-4,6-dichloro-2,3-dihydro-1H-inden-1-yl]oxy]-2-fluorobenzene)sulfonamido]ethoxy]ethoxy)ethyl]-3-[4-([[2-(2-[2-[(4-[[(1S,2S)-2-[(3R)-3-aminopiperidin-1-yl]-4,6-dichloro-2,3-dihydro-1H-inden-1-yl]oxy]-2-fluorobenzene)sulfonamido]ethoxy]ethoxy)ethyl]carbamoyl]amino)butyl]urea] | C (>70%) | C (NHE3 pIC50 > 7) | C (>70%) | C (NHE3 pIC50 > 7)
4 | N[C@@H]1CCCN([C@H]2Cc3c(Cl)cc(Cl)cc3[C@@H]2Oc2ccc(S(=O)(=O)NCCOCCOCCNC(=O)NCCCCNC(=O)NCCOCCOCCNS(=O)(=O)c3ccc(O[C@H]4c5cc(Cl)cc(Cl)c5C[C@@H]4N4CCC[C@@H](N)C4)cc3Cl)c(Cl)c2)C1 [Example 104] | C (>70%) | C (NHE3 pIC50 > 7) | C (>70%) | C (NHE3 pIC50 > 7)
5 | N#Cc1cc(Cl)cc2c1C[C@H](N1CCNCC1)[C@H]2Oc1ccc(S(=O)(=O)N[C@@H]2CCN(CCOCCNC(=O)NCCCCNC(=O)NCCOCCN3CC[C@@H](NS(=O)(=O)c4ccc(O[C@H]5c6cc(Cl)cc(C#N)c6C[C@@H]5N5CCNCC5)cc4)C3)C2)cc1 [Example 108, 4-([(1S,2S)-6-Chloro-4-cyano-2-(piperazin-1-yl)-2,3-dihydro-1H-inden-1-yl]oxy)-N—[(R)-1-(20-[(R)-3-([4-([(1S2S)-6-chloro-4-cyano-2-(piperazin-1-yl)-2,3-dihydro-1H-inden-1-yl]oxy)phenyl]sulfonamido)pyrrolidin-1-yl]-7,14-dioxo-3,18-dioxa-6,8,13,15-tetraazaicosyl)pyrrolidin-3-yl]benzenesulfonamide; tetra(trifluoroacetate)] | C (>70%) | C (NHE3 pIC50 > 7) | C (>70%) | C (NHE3 pIC50 > 7)
6 | Cc1cc(S(=O)(=O)N[C@@H]2CCN(CCOCCNC(=O)NCCCCNC(=O)NCCOCCN3CC[C@@H](NS(=O)(=O)c4ccc(O[C@H]5c6cc(Cl)cc(C)c6C[C@@H]5N5CCC[C@@H](N(C)C)C5)c(C)c4)C3)C2)ccc1O[C@H]1c2cc(Cl)cc(C)c2C[C@@H]1N1CCC[C@@H](N(C)C)C1 [Example 113, 4-([(1S,2S)-6-Chloro-2-[(R)-3-(dimethylamino)piperidin-1-yl]-4-methyl-2,3-dihydro-1H-inden-1-yl]oxy)-N—[(R)-1-(20-[(R)-3-([4-([(1S,2S)-6-chloro-2-[(R)-3-(dimethylamino)piperidin-1-yl]-4-methyl-2,3-dihydro-1H-inden-1-yl]oxy)-3-methylphenyl]sulfonamido)pyrrolidin-1-yl]-7,14-dioxo-3,18-dioxa-6,8,13,15-tetraazaicosyl)pyrrolidin-3-yl]-3-methylbenzenesulfonamide; tetra(trifluoroacetate)] | C (>70%) | C (NHE3 pIC50 > 7) | C (>70%) | C (NHE3 pIC50 > 7)

Further lines, results first:

Row | % inhibition (NHE3 [1]) | pIC50 (NHE3 [1]) | % inhibition (NHE3 [2]) | pIC50 (NHE3 [2]) | SMILES
7 | C (>70%) | C (NHE3 pIC50 > 7) | B (40-70%) | C (NHE3 pIC50 > 7) | COc1cc(O[C@H]2c3cc(Cl)cc(Cl)c3C[C@@H]2N2CCC[C@@H](N)C2)ccc1S(=O)(=O)NCCOCCOCCNC(=O)NCCCCNC(=O)NCCOCCOCCNS(=O)(=O)c1ccc(O[C@H]2c3cc(Cl)cc(Cl)c3C[C@@H]2N2CCC[C@@H](N)C2)cc1OC [Example 101, 1-[2-(2-[2-[(4-[[(1S,2S)-2-[(3R)-3-Aminopiperidin-1-yl]-4,6-dichloro-2,3-dihydro-1H-inden-1-yl]oxy]-2-methoxybenzene)sulfonamido]ethoxy]ethoxy)ethyl]-3-[4-([[2-(2-[2-[(4-[[(1S,2S)-2-[(3R)-3-aminopiperidin-1-yl]-4,6-dichloro-2,3-dihydro-1H-inden-1-yl]oxy]-2-methoxybenzene)sulfonamido]ethoxy]ethoxy)ethyl]carbamoyl]amino)butyl]urea]
8 | C (>70%) | C (NHE3 pIC50 > 7) | C (>70%) | C (NHE3 pIC50 > 7) | CN(C)[C@H]1Cc2c(Cl)cc(Cl)cc2[C@@H]1Oc1ccc(S(=O)(=O)N[C@H]2CCN(CCOCCNC(=O)NCCCCNC(=O)NCCOCCN3CC[C@H](NS(=O)(=O)c4ccc(O[C@H]5c6cc(Cl)cc(Cl)c6C[C@@H]5N(C)C)c(F)c4)C3)C2)cc1F [Example 111, 4-([(1S,2S)-4,6-Dichloro-2-(dimethylamino)-2,3-dihydro-1H-inden-1-yl]oxy)-N—[(S)-1-(20-[(S)-3-([4-([(1S,2S)-4,6-dichloro-2-(dimethylamino)-2,3-dihydro-1H-inden-1-yl]oxy)-3-fluorophenyl]sulfonamido)pyrrolidin-1-yl]-7,14-dioxo-3,18-dioxa-6,8,13,15-tetraazaicosyl)pyrrolidin-3-yl)-3-fluorobenzenesulfonamide; tetra(trifluoroacetate)]
9 | C (>70%) | C (NHE3 pIC50 > 7) | C (>70%) | C (NHE3 pIC50 > 7) | CN(C)[C@H]1Cc2c(Cl)cc(Cl)cc2[C@@H]1Oc1ccc(S(=O)(=O)N[C@@H]2CCN(CCOCCNC(=O)NCCCCNC(=O)NCCOCCN3CC[C@@H](NS(=O)(=O)c4ccc(O[C@H]5c6cc(Cl)cc(Cl)c6C[C@@H]5N(C)C)c(F)c4)C3)C2)cc1F [Example 112, 4-([(1S,2S)-4,6-Dichloro-2-(dimethylamino)-2,3-dihydro-1H-inden-1-yl]oxy)-N—[(R)-1-(20-[(R)-3-([4-([(1S,2S)-4,6-dichloro-2-(dimethylamino)-2,3-dihydro-1H-inden-1-yl]oxy)-3-fluorophenyl]sulfonamido)pyrrolidin-1 yl]-7,14-dioxo-3,18-dioxa-6,8,13,15-tetraazaicosyl)pyrrolidin-3-yl)-3-fluorobenzenesulfonamide; tetra(trifluoroacetate)]
